Source: ChEMBL document CHEMBL5512688 (J Med Chem, 2024)

Legend:
Wee1-like protein kinase [1] = target: T1, Wee1-like protein kinase (Homo sapiens, UniProt P30291); assay: Inhibition of human Wee1 (215 to 647 residues) using polyornithine/tyrosine (4:1) as substrate incubated for 5 mins in presence of ATP by micro beta plate reader analysis
A-427 = assay: Antiproliferative activity against human A-427 cells assessed as inhibition of cell growth incubated for 72 hrs by CCK-8 assay; assay type: functional, cell-based; conditions: A-427, 72 h
[2] = Metabolic stability in human liver microsome assessed as parent compound remaining measured at 60 mins by LCMS/MS analysis; assay type: ADME; conditions: liver microsomes, read-out: Stability
[3] = Metabolic stability in mouse liver microsome assessed as parent compound remaining measured at 60 mins by LCMS/MS analysis; assay type: ADME; conditions: liver microsomes, read-out: Stability
LoVo = assay: Antiproliferative activity against human LoVo cells assessed as inhibition of cell growth incubated for 72 hrs by CCK-8 method; assay type: functional, cell-based
[4] = Bioavailability in ICR mouse at 60 mg/kg, IG measured upto 24 hrs by LC-MS/MS analysis; assay type: ADME, organism-based; conditions: in vivo, po
Wee1-like protein kinase [5] = target: T1, Wee1-like protein kinase; assay: Inhibition of Wee1 in human U2OS cells assessed as reduction in CDK1 phosphorylation measured for 1 hr by Western blot analysis; assay type: cell-based
[6] = AUC (0 to 24 hrs) in ICR mouse at 1 mg/kg, iv measured upto 24 hrs by LC-MS/MS analysis; assay type: ADME, organism-based; conditions: in vivo
[7] = Half life in ICR mouse at 60 mg/kg, IG measured upto 24 hrs by LC-MS/MS analysis; assay type: ADME, organism-based; conditions: in vivo, po
[8] = Clearance in ICR mouse at 1 mg/kg, iv measured upto 24 hrs by LC-MS/MS analysis; assay type: ADME, organism-based; conditions: in vivo
[9] = Half life in ICR mouse at 1 mg/kg, iv measured upto 24 hrs by LC-MS/MS analysis; assay type: ADME, organism-based; conditions: in vivo
[10] = Volume of distribution in ICR mouse at 1 mg/kg, iv measured upto 24 hrs by LC-MS/MS analysis; assay type: ADME, organism-based; conditions: in vivo
[11] = AUC (0 to 24 hrs) in ICR mouse at 60 mg/kg, IG measured upto 24 hrs by LC-MS/MS analysis; assay type: ADME, organism-based; conditions: in vivo, po

T1 sequence (P30291 whole entry, the tested form may be a part): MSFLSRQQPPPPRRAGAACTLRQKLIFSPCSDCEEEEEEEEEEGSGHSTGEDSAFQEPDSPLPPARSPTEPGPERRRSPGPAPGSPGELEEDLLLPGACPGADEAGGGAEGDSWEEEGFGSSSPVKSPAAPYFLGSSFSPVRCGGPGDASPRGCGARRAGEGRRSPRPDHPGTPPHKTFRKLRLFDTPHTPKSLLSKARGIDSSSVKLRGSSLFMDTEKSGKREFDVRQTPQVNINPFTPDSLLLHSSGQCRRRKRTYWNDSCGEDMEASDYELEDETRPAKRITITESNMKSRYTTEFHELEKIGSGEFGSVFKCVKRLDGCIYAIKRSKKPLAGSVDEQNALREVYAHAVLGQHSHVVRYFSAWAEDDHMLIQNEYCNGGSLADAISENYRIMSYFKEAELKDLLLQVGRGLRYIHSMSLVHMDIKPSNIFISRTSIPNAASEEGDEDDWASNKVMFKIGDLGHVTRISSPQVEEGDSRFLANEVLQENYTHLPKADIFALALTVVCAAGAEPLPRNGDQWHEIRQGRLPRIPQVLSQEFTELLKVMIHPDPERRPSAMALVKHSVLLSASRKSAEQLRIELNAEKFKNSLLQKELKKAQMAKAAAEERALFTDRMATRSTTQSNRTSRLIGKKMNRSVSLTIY

| IC50 (Wee1-like protein kinase [1]) [µM] | remaining at 1 h [2] [%] | remaining at 1 h [3] [%] | Structure (SMILES) | IC50 (A-427) [µM] | also measured |
| --- | --- | --- | --- | --- | --- |
| 0.0045 | 3.89 | 15.9 | C=CCn1c(=O)c2cnc(Nc3ccc(N4CCN(C)CC4)cc3)nc2n1-c1cccc(-n2cc(F)cn2)n1 | 0.329 | – |
| 0.0014 | 81 | 65.8 | C=CCn1c(=O)c2cnc(Nc3ccc4c(c3)CNCC4)nc2n1-c1cccc(-c2ncccn2)n1 | 0.283 | – |
| 0.033 | – | – | CN1CCN(c2ccc(Nc3ncc4c(=O)n(CC5CC5)n(-c5cccc(-c6cnccn6)n5)c4n3)cc2)CC1 | 1.87 | – |
| 0.0022 | 79.8 | 63.9 | C=CCn1c(=O)c2cnc(Nc3ccc(N4CCN(C)CC4)cc3)nc2n1-c1cccc(-c2ncccn2)n1 | 0.399 | IC50 (LoVo): 0.557 µM; bioavailability [4]: 61.1%; IC50 (Wee1-like protein kinase [5]): 0.465 µM; AUC(0-t) at 24 h [6]: 0.403 µg·h/mL; half-life [7]: 1.74 h; clearance [8]: 2.47 L/h/kg; half-life [9]: 1.19 h; Vd [10]: 4.24 L/kg; AUC(0-t) at 24 h [11]: 14.8 µg·h/mL |
| 0.0021 | – | – | C=CCn1c(=O)c2cnc(Nc3ccc(N4CCN(C)CC4)cc3)nc2n1-c1ccc2ncn(C(C)C)c2c1 | 0.31 | – |
| 0.0024 | – | – | C=CCn1c(=O)c2cnc(Nc3ccc(N4CCN(C)CC4)cc3)nc2n1-c1cccc(-c2ncc(C#N)cn2)n1 | 0.342 | – |
| 0.0024 | 30.7 | 13.4 | C=CCn1c(=O)c2cnc(Nc3ccc(N4CCN(C)CC4)cc3)nc2n1-c1cccc(-c2cc(F)ccn2)n1 | 0.24 | – |
| 0.0038 | 7.35 | 18.6 | C=CCn1c(=O)c2cnc(Nc3ccc(N4CCN(C)CC4)cc3)nc2n1-c1cccc(-n2cnc(C)c2)n1 | 0.347 | – |
| 0.0023 | 42.2 | 39.4 | C=CCn1c(=O)c2cnc(Nc3ccc4c(c3)CN(C)CC4)nc2n1-c1cccc(-c2cccnn2)n1 | 0.245 | – |
| 0.0041 | – | – | C=CCn1c(=O)c2cnc(Nc3ccc(N4CCN(C)CC4)cc3)nc2n1-c1cccc(-n2ccc(C)n2)n1 | 0.898 | – |
| 0.0022 | 32.5 | 18.4 | C=CCn1c(=O)c2cnc(Nc3ccc(N4CCN(C)CC4)cc3)nc2n1-c1cccc(-c2cccc(F)n2)n1 | 0.28 | – |
| 0.0024 | – | – | C=CCn1c(=O)c2cnc(Nc3ccc(N4CCN(C)CC4)cc3)nc2n1-c1ccc2cnn(C(C)C)c2c1 | 0.315 | – |
| 0.0134 | – | – | C=CCn1c(=O)c2cnc(Nc3ccc(N4CCN(C)CC4)cc3)nc2n1-c1cncc(-c2cnccn2)c1 | 4.17 | – |
| 0.0024 | 18 | 8.82 | C=CCn1c(=O)c2cnc(Nc3ccc(N4CCN(C)CC4)cc3)nc2n1-c1cccc(-n2cccn2)n1 | 0.252 | – |
| 0.002 | – | – | C=CCn1c(=O)c2cnc(Nc3ccc(N4C5CCC4CN(C)C5)cc3)nc2n1-c1cccc(-c2cnccn2)n1 | 0.603 | – |
| 0.0017 | 44.1 | 17.8 | C=CCn1c(=O)c2cnc(Nc3ccc(N4C[C@@H](C)N[C@@H](C)C4)cc3)nc2n1-c1cccc(-c2cnccn2)n1 | 0.232 | – |
| 0.0025 | 34.8 | 53.1 | C=CCn1c(=O)c2cnc(Nc3ccc(N4CCN(C)CC4)c(OC)c3)nc2n1-c1cccc(-c2cccnn2)n1 | 0.231 | – |
| 0.0025 | – | – | C=CCn1c(=O)c2cnc(Nc3ccc(N4CCN(C)CC4)cc3)nc2n1-c1cccc(-c2cnn(C(F)F)c2)n1 | 0.372 | – |
| 0.0026 | – | – | C=CCn1c(=O)c2cnc(Nc3ccc(N4CCN(C)CC4)cc3)nc2n1-c1cccc(-c2cnn(C)c2)n1 | 0.616 | – |
| 0.0031 | 67.2 | 56.9 | C=CCn1c(=O)c2cnc(Nc3ccc(N4CCN(CCN(C)C)CC4)cc3)nc2n1-c1cccc(-c2cnccn2)n1 | 0.238 | – |

| IC50 (Wee1-like protein kinase [1]) [µM] | remaining at 1 h [2] [%] | remaining at 1 h [3] [%] | Structure (SMILES) | IC50 (A-427) [µM] | also measured |
| --- | --- | --- | --- | --- | --- |
| 0.0031 | 106 | 94.7 | C=CCn1c(=O)c2cnc(Nc3ccc(N4CCN(CCN(C)C)CC4)cc3)nc2n1-c1cccc(-c2ncccn2)n1 | 0.556 | – |
| 0.0037 | 6.06 | 11.2 | C=CCn1c(=O)c2cnc(Nc3ccc(N4CCN(C)CC4)cc3)nc2n1-c1cccc(-n2cc(C)cn2)n1 | 0.221 | – |
| 0.0022 | – | – | C=CCn1c(=O)c2cnc(Nc3ccc(N4CCN(C)CC4)cc3)nc2n1-c1ccc2ccccc2n1 | 0.949 | – |
| 0.0022 | – | – | C=CCn1c(=O)c2cnc(Nc3ccc(N4CCN(C)CC4)cc3)nc2n1-c1cccc(-c2cnc(Cl)cn2)n1 | 0.434 | – |
| 0.0024 | 51.3 | 83.9 | C=CCn1c(=O)c2cnc(Nc3ccc(N4C[C@@H](C)N[C@@H](C)C4)cc3)nc2n1-c1cccc(-c2ncccn2)n1 | 0.341 | bioavailability [4]: 87.1%; AUC(0-t) at 24 h [6]: 0.0355 µg·h/mL; half-life [7]: 5.42 h; clearance [8]: 25.6 L/h/kg; half-life [9]: 1.72 h; Vd [10]: 60.5 L/kg; AUC(0-t) at 24 h [11]: 1.85 µg·h/mL |
| 0.0029 | 71.2 | 56 | C=CCn1c(=O)c2cnc(Nc3ccc(N4CCN(CCO)CC4)cc3)nc2n1-c1cccc(-c2cnccn2)n1 | 0.105 | bioavailability [4]: 54.9%; AUC(0-t) at 24 h [6]: 0.0743 µg·h/mL; half-life [7]: 4.68 h; clearance [8]: 13.1 L/h/kg; half-life [9]: 1.3 h; Vd [10]: 17 L/kg; AUC(0-t) at 24 h [11]: 2.44 µg·h/mL |
| 0.0094 | – | – | C=CCCn1c(=O)c2cnc(Nc3ccc(N4CCN(C)CC4)cc3)nc2n1-c1cccc(-c2cnccn2)n1 | 1.05 | – |
| 0.0034 | – | – | CC(C)n1c(=O)c2cnc(Nc3ccc(N4CCN(C)CC4)cc3)nc2n1-c1cccc(-c2cnccn2)n1 | 1.41 | – |
| 0.002 | 46.5 | 55.1 | C=CCn1c(=O)c2cnc(Nc3ccc(N4CCN(C)CC4)cc3)nc2n1-c1cccc(-c2cccnn2)n1 | 0.206 | bioavailability [4]: 41.9%; AUC(0-t) at 24 h [6]: 0.17 µg·h/mL; half-life [7]: 8.65 h; clearance [8]: 5.29 L/h/kg; half-life [9]: 2.45 h; Vd [10]: 11.7 L/kg; AUC(0-t) at 24 h [11]: 4.27 µg·h/mL |
| 0.0023 | 73.5 | 40.5 | C=CCn1c(=O)c2cnc(Nc3ccc(N4C[C@H]5C[C@@H]4CN5C)cc3)nc2n1-c1cccc(-c2cnccn2)n1 | 0.226 | – |
| 0.003 | 28.6 | 23.8 | C=CCn1c(=O)c2cnc(Nc3ccc(N4C5CCC4CN(C)C5)cc3)nc2n1-c1cccc(-c2cccnn2)n1 | 0.226 | – |
| 0.016 | – | – | COCCn1c(=O)c2cnc(Nc3ccc(N4CCN(C)CC4)cc3)nc2n1-c1cccc(-c2cnccn2)n1 | 0.512 | – |
| 0.0021 | 67.3 | 79.4 | C=CCn1c(=O)c2cnc(Nc3ccc(C4CCN(C)CC4)cc3)nc2n1-c1cccc(-c2ncccn2)n1 | 0.334 | bioavailability [4]: 30.3%; AUC(0-t) at 24 h [6]: 0.236 µg·h/mL; half-life [7]: 3.55 h; clearance [8]: 4.17 L/h/kg; half-life [9]: 1.51 h; Vd [10]: 9.03 L/kg; AUC(0-t) at 24 h [11]: 4.28 µg·h/mL |
| 0.0032 | 49.8 | 48.2 | C=CCn1c(=O)c2cnc(Nc3ccc(N4CCN(C)CC4)cc3)nc2n1-c1cccc(-c2ncc(F)cn2)n1 | 0.454 | – |
| 0.0022 | – | – | C=CCn1c(=O)c2cnc(Nc3ccc(N4CCN(C)CC4)cc3)nc2n1-c1cccc(-n2nc(C)cc2C)n1 | 0.955 | – |
| 0.00089 | 90.9 | 99.1 | C=CCn1c(=O)c2cnc(Nc3ccc(N4CCNCC4)cc3)nc2n1-c1cccc(-c2ncccn2)n1 | 0.32 | bioavailability [4]: 1.96%; AUC(0-t) at 24 h [6]: 0.199 µg·h/mL; clearance [8]: 4.92 L/h/kg; half-life [9]: 1.24 h; Vd [10]: 5.66 L/kg; AUC(0-t) at 24 h [11]: 0.235 µg·h/mL |
| 0.0018 | 67 | 44.7 | C=CCn1c(=O)c2cnc(Nc3ccc(C4CCN(C)CC4)cc3)nc2n1-c1cccc(-c2cccnn2)n1 | 0.156 | – |
| 0.0021 | 74.1 | 87.1 | C=CCn1c(=O)c2cnc(Nc3ccc(N4C[C@@H](C)N[C@@H](C)C4)cc3)nc2n1-c1cccc(-c2cccnn2)n1 | 0.24 | bioavailability [4]: 0.4%; AUC(0-t) at 24 h [6]: 0.0867 µg·h/mL; clearance [8]: 10.7 L/h/kg; half-life [9]: 1.56 h; Vd [10]: 20.3 L/kg; AUC(0-t) at 24 h [11]: 0.0208 µg·h/mL |
| 0.0018 | 29.7 | 18.1 | C=CCn1c(=O)c2cnc(Nc3ccc(N4CCN(C)CC4)cc3)nc2n1-c1cccc(-c2ccc(F)cn2)n1 | 0.327 | – |
| 0.0126 | – | – | C=CCn1c(=O)c2cnc(Nc3ccc(N4CCN(C)CC4)cc3)nc2n1-c1cc(-c2cnccn2)ccn1 | 3.51 | – |
